Source: ChEMBL document CHEMBL4680314, “Discovery of potent glycogen synthase kinase 3/cholinesterase inhibitors with neuroprotection as potential therapeutic agent for Alzheimer's disease” (Bioorg Med Chem, 2021)
Active and inactive are the calls of the source. The calls are words filed in the database; no cut-off is given here.

Tests used:
in vitro = conditions: PAMPA
Description: Effective permeability of compound in PBS/EtOH buffer (7:3) at 25 ug/ml incubated for 18 hrs by PAMPA-BBB assay

Acetylcholinesterase = Acetylcholinesterase (Homo sapiens, UniProt P22303); experiment: Inhibition of human recombinant AChE expressed in HEK293 cells using acetylthiocholine iodide as substrate incubated for 10 mins by Ellman's method; type: cell-based
Cholinesterase = Cholinesterase (Homo sapiens, UniProt P06276); experiment: Inhibition of human BChE using butyrylthiocholineiodide as substrate incubated for 10 mins by Ellman's method
[1] = biological target: Glycogen synthase kinase-3 beta (Homo sapiens, UniProt P49841); experiment: biochemical
Description: Inhibition of recombinant human N-terminal His6-tagged GSK3beta H350L mutant expressed in baculovirus infected Sf21 cells using prephosphorylated polypeptide as substrate incubated for 1 min followed by substrate addition and measured after 30 mins by Kinase-Glo luminescence assay

BV-2 [2] = experiment: Anti-inflammatory activity in mouse BV-2 cells assessed as reduction in LPS-induced ROS production at 3 uM incubated for 1 hr followed by LPS stimulation and measured after 24 hrs by DCFH-DA staining based inverted fluorescence microscopy; type: functional, cell-based; conditions: time 25.0 hrs
[3] = Drug uptake in mouse BV-2 cells at 25 uM incubated for 1 hr measured per million cells by LC-MS/MS analysis; type: ADME, cell-based; conditions: bv-2, 1 h
BV-2 [4] = experiment: Anti-inflammatory activity in mouse BV-2 cells assessed as reduction in LPS-induced TNFalpha production incubated for 1 hr followed by LPS stimulation and measured after 24 hrs by ELISA; type: functional, cell-based; conditions: dose 2-8 µM, time 25.0 hrs
BV-2 [5] = experiment: Anti-inflammatory activity in mouse BV-2 cells assessed as reduction in LPS-induced IL-1beta production incubated for 1 hr followed by LPS stimulation and measured after 24 hrs by ELISA; type: functional, cell-based; conditions: dose 2-8 µM, time 25.0 hrs
BV-2 [6] = experiment: Anti-inflammatory activity in mouse BV-2 cells assessed as reduction in LPS-induced TNFalpha expression at 4 uM incubated for 1 hr followed by LPS stimulation and measured after 24 hrs by immunofluorescence based laser confocal microscopy; type: functional, cell-based; conditions: time 25.0 hrs
BV-2 [7] = experiment: Anti-inflammatory activity in mouse BV-2 cells assessed as reduction in LPS-induced IL-1beta expression at 4 uM incubated for 1 hr followed by LPS stimulation and measured after 24 hrs by immunofluorescence based laser confocal microscopy; type: functional, cell-based; conditions: time 25.0 hrs
[8] = Half life in Sprague-Dawley rat at 10 mg/kg, po measured upto 24 hrs by LC-MS/MS analysis; type: ADME, organism-based; conditions: in vivo
[9] = Tmax in Sprague-Dawley rat at 10 mg/kg, po measured upto 24 hrs by LC-MS/MS analysis; type: ADME, organism-based; conditions: in vivo
[10] = Cmax in Sprague-Dawley rat at 10 mg/kg, po measured upto 24 hrs by LC-MS/MS analysis; type: ADME, organism-based; set-up: route oral, dose 10 mg/kg, time <=24; conditions: in vivo
[11] = AUC (0 to 24 hrs) in Sprague-Dawley rat at 10 mg/kg, po measured upto 24 hrs by LC-MS/MS analysis; type: ADME, organism-based; set-up: route oral, dose 10 mg/kg, time <=24; conditions: in vivo
[12] = AUC (0 to infinity) in Sprague-Dawley rat at 10 mg/kg, po by LC-MS/MS analysis; type: ADME, organism-based; set-up: route oral, time infinity, dose 10 mg/kg; conditions: in vivo
[13] = Volume of distribution in Sprague-Dawley rat at 10 mg/kg, po measured upto 24 hrs by LC-MS/MS analysis; type: ADME, organism-based; conditions: in vivo
[14] = MRT (0 to t) in Sprague-Dawley rat at 10 mg/kg, po measured upto 24 hrs by LC-MS/MS analysis; type: ADME, organism-based; conditions: in vivo
[15] = Clearance in Sprague-Dawley rat at 10 mg/kg, po measured upto 24 hrs by LC-MS/MS analysis; type: ADME, organism-based; conditions: in vivo
[16] = Oral bioavailability in Sprague-Dawley rat at 10 mg/kg measured upto 24 hrs by LC-MS/MS analysis; type: ADME, organism-based; conditions: in vivo
[17] = Half life in Sprague-Dawley rat at 5 mg/kg, iv measured upto 24 hrs by LC-MS/MS analysis; type: ADME, organism-based; conditions: in vivo
[18] = Tmax in Sprague-Dawley rat at 5 mg/kg, iv measured upto 24 hrs by LC-MS/MS analysis; type: ADME, organism-based; conditions: in vivo
[19] = Cmax in Sprague-Dawley rat at 5 mg/kg, iv measured upto 24 hrs by LC-MS/MS analysis; type: ADME, organism-based; set-up: route intravenous, dose 5 mg/kg, time <=24; conditions: in vivo
[20] = AUC (0 to 24 hrs) in Sprague-Dawley rat at 5 mg/kg, iv measured upto 24 hrs by LC-MS/MS analysis; type: ADME, organism-based; set-up: route intravenous, dose 5 mg/kg, time <=24; conditions: in vivo
[21] = AUC (0 to infinity) in Sprague-Dawley rat at 5 mg/kg, iv by LC-MS/MS analysis; type: ADME, organism-based; set-up: route intravenous, dose 5 mg/kg; conditions: in vivo
[22] = Volume of distribution in Sprague-Dawley rat at 5 mg/kg, iv measured upto 24 hrs by LC-MS/MS analysis; type: ADME, organism-based; conditions: in vivo
[23] = MRT (0 to t) in Sprague-Dawley rat at 5 mg/kg, iv measured upto 24 hrs by LC-MS/MS analysis; type: ADME, organism-based; conditions: in vivo
[24] = Clearance in Sprague-Dawley rat at 5 mg/kg, iv measured upto 24 hrs by LC-MS/MS analysis; type: ADME, organism-based; conditions: in vivo
[25] = Plasma concentration in ICR mouse at 15 mg/kg, po measured after 90 mins by LC-MS/MS analysis; type: ADME, organism-based
[26] = Ratio of drug level in ICR mouse brain to blood at 15 mg/kg, po measured after 90 mins by LC-MS/MS analysis; type: ADME, organism-based; conditions: 1.5 h
[27] = Toxicity in ICR mouse assessed as reduction in body weight at 15 mg/kg, po; type: organism-based; conditions: in vivo
[28] = Toxicity in ICR mouse model of scopolamine-induced cognitive dysfunction assessed as effect on locomotor activity by measuring effect on swimming speed at 15 mg/kg, po by Morris water maze test; type: organism-based; conditions: in vivo
BV-2 [29] = experiment: Cytotoxicity against mouse BV-2 cells assessed as effect on cell morphology; type: cell-based

Sequence of Cholinesterase (P06276 whole entry): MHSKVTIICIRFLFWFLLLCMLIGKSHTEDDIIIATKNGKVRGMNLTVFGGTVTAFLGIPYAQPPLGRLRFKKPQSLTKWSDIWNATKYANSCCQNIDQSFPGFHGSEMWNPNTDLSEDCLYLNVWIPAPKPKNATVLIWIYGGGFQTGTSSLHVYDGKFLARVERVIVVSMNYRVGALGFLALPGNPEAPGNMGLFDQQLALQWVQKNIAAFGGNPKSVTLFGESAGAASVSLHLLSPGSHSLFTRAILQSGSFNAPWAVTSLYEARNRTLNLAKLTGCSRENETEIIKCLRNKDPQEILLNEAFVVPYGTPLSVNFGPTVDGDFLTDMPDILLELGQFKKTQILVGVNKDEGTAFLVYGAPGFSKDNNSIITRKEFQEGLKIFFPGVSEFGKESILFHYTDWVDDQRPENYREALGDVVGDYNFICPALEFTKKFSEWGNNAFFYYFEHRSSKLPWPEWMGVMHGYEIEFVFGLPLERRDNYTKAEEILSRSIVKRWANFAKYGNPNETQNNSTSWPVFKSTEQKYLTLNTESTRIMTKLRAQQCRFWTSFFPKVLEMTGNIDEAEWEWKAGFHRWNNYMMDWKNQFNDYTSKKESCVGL
Sequence of Acetylcholinesterase (P22303 whole entry): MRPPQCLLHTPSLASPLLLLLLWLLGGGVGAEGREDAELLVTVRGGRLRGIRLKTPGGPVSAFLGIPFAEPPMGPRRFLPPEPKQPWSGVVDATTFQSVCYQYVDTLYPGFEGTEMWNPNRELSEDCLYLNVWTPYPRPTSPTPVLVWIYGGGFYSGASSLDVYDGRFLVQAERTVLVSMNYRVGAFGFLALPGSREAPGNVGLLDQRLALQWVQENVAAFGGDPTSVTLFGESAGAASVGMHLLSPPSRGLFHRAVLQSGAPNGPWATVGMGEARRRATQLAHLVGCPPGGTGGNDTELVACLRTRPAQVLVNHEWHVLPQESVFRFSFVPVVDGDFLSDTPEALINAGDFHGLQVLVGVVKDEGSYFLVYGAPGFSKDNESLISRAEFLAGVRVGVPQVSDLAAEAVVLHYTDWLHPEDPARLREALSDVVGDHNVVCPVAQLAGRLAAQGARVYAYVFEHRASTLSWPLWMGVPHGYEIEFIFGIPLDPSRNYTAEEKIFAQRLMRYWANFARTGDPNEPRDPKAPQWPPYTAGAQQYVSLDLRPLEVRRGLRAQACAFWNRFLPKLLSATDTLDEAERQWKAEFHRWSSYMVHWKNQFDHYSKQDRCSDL
Sequence of Glycogen synthase kinase-3 beta (P49841 whole entry): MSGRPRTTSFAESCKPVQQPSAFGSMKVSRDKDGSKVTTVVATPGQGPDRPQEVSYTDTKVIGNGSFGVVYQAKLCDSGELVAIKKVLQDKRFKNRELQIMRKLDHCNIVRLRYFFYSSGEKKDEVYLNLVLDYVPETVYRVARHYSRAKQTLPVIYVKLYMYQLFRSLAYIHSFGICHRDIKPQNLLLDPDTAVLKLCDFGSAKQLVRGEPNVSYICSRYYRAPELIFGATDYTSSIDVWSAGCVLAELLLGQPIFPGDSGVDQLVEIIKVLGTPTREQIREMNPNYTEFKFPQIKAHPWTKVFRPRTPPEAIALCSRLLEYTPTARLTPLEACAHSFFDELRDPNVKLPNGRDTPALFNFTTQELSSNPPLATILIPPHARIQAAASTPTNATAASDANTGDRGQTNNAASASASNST

Compound: CCn1cc(C(=O)O)c(=O)c2ccc(-n3cccc3)cc21
- Papp at 18 h, 25 ug/ml (in vitro): 2.5 ×10⁻⁶ cm/s

Compound: NC(=O)c1sc(-c2ccnc(NC(=O)C3CC3)c2)nc1OCCCC1CCN(Cc2ccccc2F)CC1
- IC50 (Acetylcholinesterase): 1.32 µM
- IC50 (Cholinesterase): 4.2 µM
- Papp at 18 h, 25 ug/ml (in vitro): 7.1 ×10⁻⁶ cm/s
- IC50 [1]: 0.015 µM

Compound: COc1cc2c(cc1OC)C(=O)C(CC1CCN(Cc3ccccc3)CC1)C2 (configuration not stated) [DONEPEZIL]
- IC50 [1]: > 1 µM

Compound: CNC(=O)c1sc(-c2ccnc(NC(=O)C3CC3)c2)nc1OCC1CCN(Cc2ccc(Cl)c(Cl)c2)CC1
- IC50 (Acetylcholinesterase): 97 µM
- IC50 (Cholinesterase): 65 µM
- IC50 [1]: 0.041 µM

Compound: NC(=O)c1sc(-c2ccnc(NC(=O)C3CC3)c2)nc1OCCC1CCN(Cc2c(F)cccc2F)CC1
- IC50 (Acetylcholinesterase): 19.5 µM
- IC50 (Cholinesterase): 1.9 µM
- Papp at 18 h, 25 ug/ml (in vitro): 6.8 ×10⁻⁶ cm/s
- IC50 [1]: 0.005 µM

Compound: NC(=O)c1sc(-c2ccnc(NC(=O)C3CC3)c2)nc1OCCC1CCN(Cc2ccccc2Cl)CC1
- IC50 (Acetylcholinesterase): 3.7 µM
- IC50 (Cholinesterase): 301 µM
- Papp at 18 h, 25 ug/ml (in vitro): 6.8 ×10⁻⁶ cm/s
- IC50 [1]: 0.027 µM

Compound: NC(=O)c1sc(-c2ccnc(NC(=O)C3CC3)c2)nc1OCCC1CCN(Cc2ccc(F)cc2)CC1
- IC50 (Acetylcholinesterase): 4.5 µM
- IC50 (Cholinesterase): 17.6 µM
- Papp at 18 h, 25 ug/ml (in vitro): 8.2 ×10⁻⁶ cm/s
- IC50 [1]: 0.038 µM

Compound: NC(=O)c1sc(-c2ccnc(NC(=O)C3CC3)c2)nc1OCCC1CCN(Cc2ccccc2)CC1
- IC50 (Acetylcholinesterase): 0.73 µM
- IC50 (Cholinesterase): 15.3 µM
- Papp at 18 h, 25 ug/ml (in vitro): 8.8 ×10⁻⁶ cm/s
- IC50 [1]: 0.019 µM

Compound: NC(=O)c1sc(-c2ccnc(NC(=O)C3CC3)c2)nc1OCCC1CCN(Cc2cccc(F)c2)CC1
- IC50 (Acetylcholinesterase): 4.7 µM
- IC50 (Cholinesterase): 295 µM
- Papp at 18 h, 25 ug/ml (in vitro): 7 ×10⁻⁶ cm/s
- IC50 [1]: 0.026 µM

Compound: NC(=O)c1sc(-c2ccnc(NC(=O)C3CC3)c2)nc1O
- IC50 (Acetylcholinesterase): > 1000 µM
- IC50 (Cholinesterase): > 1000 µM
- IC50 [1]: 0.011 µM

Compound: CNC(=O)c1sc(-c2ccnc(NC(=O)C3CC3)c2)nc1OC1CCN(Cc2ccccc2)CC1
- IC50 (Acetylcholinesterase): 73 µM
- IC50 (Cholinesterase): 31 µM
- IC50 [1]: 0.007 µM

Compound: CNC(=O)c1sc(-c2ccnc(NC(=O)C3CC3)c2)nc1OCC1CCN(Cc2cccc(Br)c2)CC1
- IC50 (Acetylcholinesterase): 394 µM
- IC50 (Cholinesterase): 15 µM
- IC50 [1]: 0.049 µM

Compound: NC(=O)c1sc(-c2ccnc(NC(=O)C3CC3)c2)nc1OCCCC1CCN(Cc2ccccc2)CC1
- IC50 (Acetylcholinesterase): 0.38 µM
- IC50 (Cholinesterase): 20.6 µM
- Activity (BV-2 [2]): Active
- Drug uptake [3]: 103 ng
- Activity (BV-2 [4]): Dose-dependent effect
- Activity (BV-2 [5]): Dose-dependent effect
- Activity (BV-2 [6]): Active
- Activity (BV-2 [7]): Active
- half-life [8]: 3.9 h
- Tmax [9]: 8 h
- Cmax [10]: 44.1 ng/mL
- AUC(0-t) [11]: 440 ng·h/mL
- AUC(0-inf) [12]: 453 ng·h/mL
- Vd [13]: 77 L/kg
- MRT last at 24 h [14]: 9.2 h
- CL/F [15]: 296 mL/min/kg
- bioavailability [16]: 15.1%
- half-life [17]: 6.3 h
- Tmax [18]: 4.98 min
- Cmax [19]: 771 ng/mL
- AUC(0-t) [20]: 1680 ng·h/mL
- AUC(0-inf) [21]: 1760 ng·h/mL
- Vd [22]: 30.7 L/kg
- MRT last at 24 h [23]: 5.1 h
- clearance [24]: 50.1 mL/min/kg
- concentration at 1.5 h [25]: 84.9 ng/mL
- Ratio [26]: 9.2 ng/kg
- Activity [27]: Non-Toxic
- Activity [28]: Non-Toxic
- Activity (BV-2 [29]): Non-Toxic
- Papp at 18 h, 25 ug/ml (in vitro): 10.9 ×10⁻⁶ cm/s
- IC50 [1]: 0.008 µM

Compound: CNC(=O)c1sc(-c2ccnc(NC(=O)C3CC3)c2)nc1OCC1CCN(Cc2ccccc2)CC1
- IC50 (Acetylcholinesterase): 8 µM
- IC50 (Cholinesterase): 14 µM
- IC50 [1]: 0.016 µM

Compound: NC(=O)c1sc(-c2ccnc(NC(=O)C3CC3)c2)nc1OCCC1CCN(Cc2ccccn2)CC1
- IC50 (Acetylcholinesterase): 6.6 µM
- IC50 (Cholinesterase): 86.1 µM
- IC50 [1]: 0.193 µM

Compound: CNC(=O)c1sc(-c2ccnc(NC(=O)C3CC3)c2)nc1OCC1CCN(Cc2ccc(Cl)cc2)CC1
- IC50 (Acetylcholinesterase): 82 µM
- IC50 (Cholinesterase): 297 µM
- IC50 [1]: 0.045 µM

Compound: NC(=O)c1sc(-c2ccnc(NC(=O)C3CC3)c2)nc1OCCC1CCN(Cc2ccccc2F)CC1
- IC50 (Acetylcholinesterase): 7.8 µM
- IC50 (Cholinesterase): 41 µM
- IC50 [1]: 0.261 µM

Compound: NC(=O)c1sc(-c2ccnc(NC(=O)C3CC3)c2)nc1OCCCC1CCN(Cc2cccc(F)c2)CC1
- IC50 (Acetylcholinesterase): 3 µM
- IC50 (Cholinesterase): 1.8 µM
- Papp at 18 h, 25 ug/ml (in vitro): 8.6 ×10⁻⁶ cm/s
- IC50 [1]: 0.009 µM

Compound: CNC(=O)c1sc(-c2ccnc(NC(=O)C3CC3)c2)nc1OCC1CCN(Cc2ccc(F)c(F)c2)CC1
- IC50 (Acetylcholinesterase): 80 µM
- IC50 (Cholinesterase): 20 µM
- IC50 [1]: 0.062 µM

Compound: CNC(=O)c1sc(-c2ccnc(NC(=O)C3CC3)c2)nc1OCC1CCN(Cc2ccc(Br)cc2)CC1
- IC50 (Acetylcholinesterase): > 1000 µM
- IC50 (Cholinesterase): 68 µM
- IC50 [1]: 0.026 µM

Compound: NC(=O)c1sc(-c2ccnc(NC(=O)C3CC3)c2)nc1OCCC1CCN(Cc2ccc(F)c(F)c2)CC1
- IC50 (Acetylcholinesterase): 42.8 µM
- IC50 (Cholinesterase): 7.2 µM
- IC50 [1]: 0.01 µM

Compound: CNC(=O)c1sc(-c2ccnc(NC(=O)C3CC3)c2)nc1OCC1CCN(Cc2cccc([N+](=O)[O-])c2)CC1
- IC50 (Acetylcholinesterase): 6 µM
- IC50 (Cholinesterase): 9 µM
- IC50 [1]: 0.005 µM

Compound: CCn1cc(C(=O)O)c(=O)c2cc(F)c(N3CCNC(C)C3)c(F)c21 (configuration not stated) [LOMEFLOXACIN]
- Papp at 18 h, 25 ug/ml (in vitro): 0.9 ×10⁻⁶ cm/s

Compound: CNC(=O)c1sc(-c2ccnc(NC(=O)C3CC3)c2)nc1OCC1CCN(Cc2ccccc2F)CC1
- IC50 (Acetylcholinesterase): 9 µM
- IC50 (Cholinesterase): 11 µM
- IC50 [1]: 0.014 µM
